According to ChEMBL document CHEMBL1201862, “PubChem BioAssay data set” (2004):
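Tested at 5 concentrations; 48 h exposure; 96-well plates; endpoints linearly interpolated, else capped at highest concentration. GI50 is the concentration that inhibits growth by half.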 The source made the active and inactive calls. Rule as the data show it: active = GI50 up to about 1.1 µM and inactive = higher.

Legend:
Assay in all cases: DTP human tumour cell line panel, 48 h
KM12 = system: KM12
NCI-H522 = system: NCI-H522
SW-620 = system: SW-620
NCI-H226 = system: NCI-H226
SF-295 = system: SF-295
RPMI-8226 = system: RPMI-8226
OVCAR-5 = system: OVCAR-5
NCI-H23 = system: NCI-H23
A549 = system: A549
MDA-MB-231 = system: MDA-MB-231
HCT-15 = system: HCT-15
CCRF-CEM = system: CCRF-CEM
COLO 205 = system: COLO 205
SR = system: SR
HT-29 = system: HT-29
SNB-19 = system: SNB-19
HL-60 = system: HL-60
SK-MEL-5 = system: SK-MEL-5
786-0 = system: 786-0
HOP-92 = system: HOP-92
EKVX = system: EKVX
NCI-H460 = system: NCI-H460
TK-10 = system: TK-10
U-251 = system: U-251
OVCAR-4 = system: OVCAR-4
MCF7 = system: MCF7
Malme-3M = system: Malme-3M
PC-3 = system: PC-3
HCT-116 = system: HCT-116
LOX IMVI = system: LOX IMVI
SF-268 = system: SF-268
ACHN = system: ACHN
SN12C = system: SN12C
CAKI-1 = system: CAKI-1
UACC-257 = system: UACC-257
BT-549 = system: BT-549
SNB-75 = system: SNB-75
HCC 2998 = system: HCC 2998
NCI/ADR-RES = system: NCI/ADR-RES
SF-539 = system: SF-539
SK-MEL-28 = system: SK-MEL-28
OVCAR-8 = system: OVCAR-8
MOLT-4 = system: MOLT-4
IGROV-1 = system: IGROV-1
HOP-62 = system: HOP-62
K562 = system: K562
M14 = system: M14
DU-145 = system: DU-145
MDA-MB-435 = system: MDA-MB-435
SK-MEL-2 = system: SK-MEL-2
MDA-N = system: MDA-N
Hs-578T = system: Hs-578T
UO-31 = system: UO-31
T47D = system: T47D
OVCAR-3 = system: OVCAR-3
RXF 393 = system: RXF 393
SK-OV-3 = system: SK-OV-3
A498 = system: A498
UACC-62 = system: UACC-62

Cn1c(=O)cc(N2CCCC2)[nH]c1=O
GI50 (KM12): > 100 µM (inactive) | GI50 (NCI-H522): > 100 µM (inactive) | GI50 (SW-620): > 100 µM (inactive) | GI50 (NCI-H226): > 100 µM (inactive) | GI50 (SF-295): > 100 µM (inactive) | GI50 (RPMI-8226): > 100 µM (inactive) | GI50 (OVCAR-5): > 100 µM (inactive) | GI50 (NCI-H23): > 100 µM (inactive) | GI50 (A549): > 100 µM (inactive) | GI50 (MDA-MB-231): > 100 µM (inactive) | GI50 (HCT-15): > 100 µM | GI50 (CCRF-CEM): > 100 µM (inactive) | GI50 (COLO 205): > 100 µM (inactive) | GI50 (SR): > 100 µM (inactive) | GI50 (HT-29): > 100 µM (inactive) | GI50 (SNB-19): > 100 µM (inactive) | GI50 (HL-60): > 100 µM (inactive) | GI50 (SK-MEL-5): > 100 µM (inactive) | GI50 (786-0): > 100 µM (inactive) | GI50 (HOP-92): > 100 µM (inactive) | GI50 (EKVX): > 100 µM (inactive) | GI50 (NCI-H460): > 100 µM (inactive) | GI50 (TK-10): > 100 µM (inactive) | GI50 (U-251): > 100 µM (inactive) | GI50 (OVCAR-4): > 100 µM (inactive) | GI50 (MCF7): > 100 µM (inactive) | GI50 (Malme-3M): > 100 µM (inactive) | GI50 (PC-3): > 100 µM (inactive) | GI50 (HCT-116): > 100 µM (inactive) | GI50 (LOX IMVI): > 100 µM (inactive) | GI50 (SF-268): 74.1 µM (inactive) | GI50 (ACHN): > 100 µM (inactive) | GI50 (SN12C): > 100 µM (inactive) | GI50 (CAKI-1): > 100 µM (inactive) | GI50 (UACC-257): > 100 µM (inactive) | GI50 (BT-549): > 100 µM (inactive) | GI50 (SNB-75): > 100 µM (inactive) | GI50 (HCC 2998): > 100 µM (inactive) | GI50 (NCI/ADR-RES): > 100 µM (inactive) | GI50 (SF-539): > 100 µM (inactive) | GI50 (SK-MEL-28): > 100 µM (inactive) | GI50 (OVCAR-8): > 100 µM (inactive) | GI50 (MOLT-4): > 100 µM (inactive) | GI50 (IGROV-1): > 100 µM (inactive) | GI50 (HOP-62): > 100 µM (inactive) | GI50 (K562): > 100 µM (inactive) | GI50 (M14): > 100 µM (inactive) | GI50 (DU-145): > 100 µM (inactive) | GI50 (MDA-MB-435): > 100 µM (inactive) | GI50 (SK-MEL-2): > 100 µM (inactive)

O=C1CC(CC(=O)c2ccc(Br)cc2)C(O)=C1C(=O)c1ccc(Br)cc1 (stereo not given)
GI50 (KM12): 11.5 µM (inactive) | GI50 (MDA-N): > 100 µM (inactive) | GI50 (NCI-H522): 51.6 µM (inactive) | GI50 (SW-620): > 100 µM (inactive) | GI50 (NCI-H226): > 100 µM (inactive) | GI50 (Hs-578T): 50 µM (inactive) | GI50 (SF-295): 53.1 µM (inactive) | GI50 (UO-31): 57.9 µM (inactive) | GI50 (RPMI-8226): > 100 µM (inactive) | GI50 (OVCAR-5): > 100 µM (inactive) | GI50 (NCI-H23): 87.7 µM (inactive) | GI50 (A549): > 100 µM (inactive) | GI50 (MDA-MB-231): 72.9 µM (inactive) | GI50 (T47D): 71.6 µM (inactive) | GI50 (HCT-15): > 100 µM | GI50 (CCRF-CEM): 53.2 µM (inactive) | GI50 (COLO 205): > 100 µM (inactive) | GI50 (SR): 44.3 µM (inactive) | GI50 (HT-29): 49.2 µM (inactive) | GI50 (SNB-19): 56.2 µM (inactive) | GI50 (OVCAR-3): 32.6 µM (inactive) | GI50 (HL-60): > 100 µM (inactive) | GI50 (SK-MEL-5): > 100 µM (inactive) | GI50 (786-0): > 100 µM (inactive) | GI50 (HOP-92): 30.1 µM (inactive) | GI50 (EKVX): > 100 µM (inactive) | GI50 (NCI-H460): 50.7 µM (inactive) | GI50 (TK-10): > 100 µM (inactive) | GI50 (U-251): 45.4 µM (inactive) | GI50 (MCF7): > 100 µM (inactive) | GI50 (Malme-3M): 69.7 µM (inactive) | GI50 (PC-3): 98.2 µM (inactive) | GI50 (HCT-116): 54.2 µM (inactive) | GI50 (LOX IMVI): 79.1 µM (inactive) | GI50 (RXF 393): > 100 µM (inactive) | GI50 (SF-268): 87.1 µM (inactive) | GI50 (ACHN): > 100 µM (inactive) | GI50 (SN12C): > 100 µM (inactive) | GI50 (CAKI-1): > 100 µM (inactive) | GI50 (UACC-257): > 100 µM (inactive) | GI50 (SK-OV-3): > 100 µM (inactive) | GI50 (HCC 2998): > 100 µM (inactive) | GI50 (NCI/ADR-RES): > 100 µM (inactive) | GI50 (SF-539): 56.4 µM (inactive) | GI50 (SK-MEL-28): > 100 µM (inactive) | GI50 (OVCAR-8): 99.8 µM (inactive) | GI50 (MOLT-4): 41.7 µM (inactive) | GI50 (A498): 77.1 µM (inactive) | GI50 (IGROV-1): > 100 µM (inactive) | GI50 (HOP-62): 94.4 µM (inactive) | GI50 (K562): 44.9 µM (inactive) | GI50 (M14): 85.5 µM (inactive) | GI50 (DU-145): > 100 µM (inactive) | GI50 (MDA-MB-435): > 100 µM (inactive) | GI50 (SK-MEL-2): > 100 µM (inactive) | GI50 (UACC-62): 42.6 µM (inactive)

Cc1ccc2[nH]c3c(c2c1)CCC/C3=N/N=C(N)N
GI50 (KM12): 1.63 µM (inactive) | GI50 (MDA-N): 1.49 µM (inactive) | GI50 (NCI-H522): 1.87 µM (inactive) | GI50 (SW-620): 3.2 µM (inactive) | GI50 (NCI-H226): 2.11 µM (inactive) | GI50 (SF-295): 1.65 µM (inactive) | GI50 (UO-31): 1.95 µM (inactive) | GI50 (RPMI-8226): 2.5 µM (inactive) | GI50 (OVCAR-5): 2.09 µM (inactive) | GI50 (NCI-H23): 3.06 µM (inactive) | GI50 (A549): 1.89 µM (inactive) | GI50 (MDA-MB-231): 1.39 µM (inactive) | GI50 (CCRF-CEM): 2.29 µM (inactive) | GI50 (COLO 205): 1.62 µM (inactive) | GI50 (SR): 2.22 µM (inactive) | GI50 (HT-29): 1.64 µM (inactive) | GI50 (SNB-19): 1.99 µM (inactive) | GI50 (OVCAR-3): 2.64 µM (inactive) | GI50 (HL-60): 9.4 µM (inactive) | GI50 (SK-MEL-5): 1.9 µM (inactive) | GI50 (786-0): 2.07 µM (inactive) | GI50 (HOP-92): 2.33 µM (inactive) | GI50 (EKVX): 1.92 µM (inactive) | GI50 (NCI-H460): 1.4 µM (inactive) | GI50 (U-251): 2.1 µM (inactive) | GI50 (OVCAR-4): 2.76 µM (inactive) | GI50 (MCF7): 1.44 µM (inactive) | GI50 (Malme-3M): 2.11 µM (inactive) | GI50 (PC-3): 2.64 µM (inactive) | GI50 (HCT-116): 2.79 µM (inactive) | GI50 (LOX IMVI): 1.84 µM (inactive) | GI50 (RXF 393): 2.15 µM (inactive) | GI50 (ACHN): 1.89 µM (inactive) | GI50 (SN12C): 1.58 µM (inactive) | GI50 (CAKI-1): 1.39 µM (inactive) | GI50 (UACC-257): 2.51 µM (inactive) | GI50 (BT-549): 14.5 µM (inactive) | GI50 (SK-OV-3): 19.1 µM (inactive) | GI50 (SNB-75): 1.34 µM (inactive) | GI50 (HCC 2998): 1.7 µM (inactive) | GI50 (NCI/ADR-RES): 1.66 µM (inactive) | GI50 (SF-539): 1.62 µM (inactive) | GI50 (SK-MEL-28): 2.24 µM (inactive) | GI50 (OVCAR-8): 1.91 µM (inactive) | GI50 (MOLT-4): 2.09 µM (inactive) | GI50 (A498): 7.14 µM (inactive) | GI50 (IGROV-1): 1.62 µM (inactive) | GI50 (HOP-62): 1.91 µM (inactive) | GI50 (K562): 2.08 µM (inactive) | GI50 (M14): 1.57 µM (inactive) | GI50 (DU-145): 1.71 µM (inactive) | GI50 (MDA-MB-435): 1.72 µM (inactive) | GI50 (SK-MEL-2): 1.69 µM (inactive) | GI50 (UACC-62): 2.16 µM (inactive)
